Values quoted from earlier work in patent publication USRE38623E1, “Stabilization of ascorbic acid, ascorbic acid derivatives and/or extracts containing ascorbic acid for topical use” (Topix Pharmaceuticals, Inc., priority 1996, dated 2004).
Where two headings read alike, the source gives them in different places.

- potency after storage (Darr '043 FIG. 1, after seven weeks, starting from 100 percent, L-ascorbic acid concentration of 1 percent): 70%
- drop in potency (Darr '043 FIG. 1, seven weeks at room temperature, L-ascorbic concentrations of 3, 5 and 10 percent): less than 10%
- drop in potency (Darr '043 FIG. 1, seven weeks, L-ascorbic acid concentration of 1 percent): approximately 30%
- lost potency (Darr '043 FIG. 2, all four samples, eight weeks at room temperature, stored in the dark): ≥ 10%
SMILES: O=C1O[C@H]([C@@H](O)CO)C(O)=C1O [L-ascorbic acid]
